Source: PubChem BioAssay (NCI)
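The compound was tested at five concentrations on cells cultured in 96-well plates, with a 48-hour exposure period. Definition used: TGI = concentration required for complete inhibition of growth.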

How the values were obtained:
Assay in all cases: NCI tumour cell line growth inhibition, 48 h
MALME-3M melanoma = tested on: MALME-3M melanoma
UACC-62 melanoma = tested on: UACC-62 melanoma
COLO 205 colon = tested on: COLO 205 colon
HT29 colon = tested on: HT29 colon
786-0 renal = tested on: 786-0 renal
RXF 393 renal = tested on: RXF 393 renal
MDA-MB-435 = tested on: MDA-MB-435
HOP-62 NSCLC = tested on: HOP-62 NSCLC
HL-60(TB) leukemia = tested on: HL-60(TB) leukemia
IGROV1 ovarian = tested on: IGROV1 ovarian
UACC-257 melanoma = tested on: UACC-257 melanoma

Row | Structure (SMILES) | TGI (MALME-3M melanoma) | TGI (UACC-62 melanoma) | TGI (COLO 205 colon) | TGI (HT29 colon) | TGI (786-0 renal) | TGI (RXF 393 renal) | TGI (MDA-MB-435) | TGI (HOP-62 NSCLC) | TGI (HL-60(TB) leukemia) | TGI (IGROV1 ovarian) | TGI (UACC-257 melanoma)
1 | COC(=O)C(Cc1c[nH]c2ccccc12)N=C1Nc2ccncc2S(=O)(=O)N1c1cccc(OC(C)C)c1 (configuration not stated) | > 100 µM | > 100 µM | > 100 µM | > 100 µM | > 100 µM | > 100 µM | > 100 µM | > 100 µM | 59.3 µM | > 100 µM | > 100 µM
2 | N#Cc1nc(C#N)n(S(=O)(=O)c2ccccc2)c1NS(=O)(=O)c1ccccc1 | > 100 µM | > 100 µM | > 100 µM | > 100 µM | > 100 µM | > 100 µM | > 100 µM | > 100 µM | > 100 µM | > 100 µM | > 100 µM
3 | CCOC(=O)C1CCCCN1C(=O)Cc1c[nH]c2ccccc12 (configuration not stated) | > 100 µM | > 100 µM | > 100 µM | > 100 µM | > 100 µM | > 100 µM | > 100 µM | > 100 µM | 58.6 µM | > 100 µM | > 100 µM
4 | c1ccc(CC2COC(c3cccs3)=N2)cc1 (configuration not stated) | > 100 µM | > 100 µM | > 100 µM | > 100 µM | > 100 µM | > 100 µM | > 100 µM | > 100 µM | > 100 µM | > 100 µM | > 100 µM
5 | COc1cc(Oc2nc3ccc(C(F)(F)F)cc3nc2-c2ccccc2)cc(OC)c1OC | > 100 µM | 31.7 µM | > 100 µM | > 100 µM | 12.7 µM | 45.7 µM | > 100 µM | 44.4 µM | > 100 µM | > 100 µM | > 100 µM
6 | c1ccc(N=C2c3ccsc3C(=Nc3ccccc3)c3ccsc32)cc1 | 0.921 µM | 3.9 µM | 6.01 µM | 13.7 µM | 6.25 µM | 3.52 µM | 0.378 µM | 3 µM | 4.2 µM | 4 µM | 2.67 µM
7 | C[N+](C)(C)c1ncnc2c1ncn2C1CCCO1 (configuration not stated) | > 100 µM | > 100 µM | > 100 µM | > 100 µM | > 100 µM | > 100 µM | > 100 µM | > 100 µM | > 100 µM | > 100 µM | > 100 µM
8 | CN=C(Nc1cccc(C(F)(F)F)c1)SCc1ccc(N=C=S)cc1 | 27.8 µM | 24.6 µM | 30.6 µM | 31.2 µM | 31 µM | 29.3 µM | 27 µM | 31.7 µM | > 100 µM | 32.8 µM | 27.3 µM
9 | COc1ccc2c3c1O[C@H](c1ccc(O)cc1)[C@H]3[N+](C)(C)CC2 | > 100 µM | > 100 µM | > 100 µM | > 100 µM | > 100 µM | > 100 µM | > 100 µM | > 100 µM | 96.1 µM | > 100 µM | > 100 µM
10 | CCOC(=O)Cn1nnc2ccc(Nc3nc4ccccc4nc3-c3ccccc3)cc21 | > 100 µM | > 100 µM | > 100 µM | > 100 µM | > 100 µM | > 100 µM | > 100 µM | > 100 µM | > 100 µM | > 100 µM | > 100 µM
11 | Cc1cc2c(cc1C)[n+](=O)c(C(=O)c1ccccc1)c(C(F)(F)F)n2[O-] | 9.89 µM | 7.72 µM | 2.95 µM | 9.11 µM | 14.7 µM | 12.9 µM | 11.2 µM | 2.34 µM | 5.73 µM | 4.02 µM | 14.6 µM
12 | C=CCOc1ccc(C2C(C(=O)OC)C(=O)CC(O)(c3ccccc3)C2C(=O)OC)cc1OC (configuration not stated) | > 100 µM | > 100 µM | > 100 µM | > 100 µM | 39 µM | 37.2 µM | > 100 µM | > 100 µM | > 100 µM | > 100 µM | > 100 µM
13 | O=c1[nH]nc(-c2ccccc2)n1O | > 100 µM | > 100 µM | > 100 µM | > 100 µM | > 100 µM | > 100 µM | > 100 µM | > 100 µM | > 100 µM | > 100 µM | > 100 µM
14 | COc1cc(CNc2nc3ccccc3nc2C(=O)O)cc(OC)c1OC | > 100 µM | > 100 µM | > 100 µM | > 100 µM | > 100 µM | > 100 µM | > 100 µM | > 100 µM | > 100 µM | > 100 µM | > 100 µM
15 | CC(C)/C(Cl)=N/OC(=O)Nc1ccc(Cl)c(Cl)c1 | 4.33 µM | 26.5 µM | 3.39 µM | 13 µM | 3.46 µM | 26.7 µM | 15.7 µM | 33.1 µM | 6.21 µM | 26.4 µM | 27.9 µM
16 | Clc1ccc2oc(CCc3ccccc3)nc2c1 | > 100 µM | > 100 µM | > 100 µM | > 100 µM | > 100 µM | 99.3 µM | > 100 µM | > 100 µM | > 100 µM | > 100 µM | > 100 µM
17 | O=[N+]([O-])c1ccc(C(O)(C#CCN2CCCC2)c2ccccc2)cc1 (configuration not stated) | 30.4 µM | 87.4 µM | 37.8 µM | 34 µM | > 100 µM | > 100 µM | 80.1 µM | > 100 µM | 36.5 µM | > 100 µM | 58.7 µM
